Assay results from patent publication US4347176A, “Compounds and methods of making same” (Burroughs Wellcome Co., priority 1980, dated 1982).

Key:
[1] = test system: antisera raised by presenting a suitable bupropion variant-carrier material conjugate to the immune system of host animals; test: competition of bupropion with radiolabeled competitor for binding to antisera; parameters: species or system rabbit
Method: (§1) Samples of six standard solutions of bupropion in blank plasma having concentrations of 0.39 to 50 ng/ml) are pipetted (0.1 ml each) in duplicate into 12×75 mm plastic tubes. Duplicate non-specific binding (no antibody) and maximum binding tubes (no unlabeled bupropion) receive 0.1 ml blank plasma. Spiked plasma controls at several concentrations of (e.g., 1.0, 10.0, and 100 ng/ml) and plasma samples for assay (diluted into the standard range with blank plasma if necessary) are assayed in duplicate. After being placed in an ice bath, all tubes receive (in order) 0.2 ml ^3 H bupropion (416 pg. containing approximately 10^4 cpm) and 0.7 ml anti-bupropion serum (raised to a ring-functionalized immunogen according to the present invention) (at pre-determined dilutions such that approximately 40% of the ^3 H bupropion added is bound), both in assay buffer (0.05 M phosphate-bufferedisotonic saline, containing 0.01 M EDTA and 0.1% gelatin, pH 7.0). […] The supernatants, containing antibody-bound ^3 H bupropion are carefully decanted into liquid scintillation cocktail for quantitation of ^3 H. After counts (minus average nonspecific binding cpm) are expressed as percentages of average maximum binding cpm, bupropion concentrations in plasma samples and spiked controls are read from a standard curve (log concentration vs percent average maximum binding).

anti-compound 1 sera = test: RIA of bupropion using 125I-labeled competitor with anti-compound 1 sera: sensitivity; type: binding, rabbit (preferred host animal); conditions: in conjunction with anti-compound 1 sera; compared with the other iodinated competitors, FIG. 2
Method: as §1, with “binding). […]” for “binding).”

[2] = test system: anti-compound 2 sera, and anti-compound 3 sera; test: RIA of bupropion using 125I-labeled competitors with anti-compound 2 sera and anti-compound 3 sera: sensitivity; type: binding, rabbit (preferred host animal); conditions: with either anti-compound 2 or anti-compound 3 sera; standard curves, FIG. 2
Method: as §1, with “7.0). Non-specific binding tubes receive 0.7 ml assay buffer.) Following incubation either at 25° C. for 2 hours or overnight at 4° C., bound and free ^3 H bupropion are separated by incubation for 10 min at 0° C. with 0.5 ml ice-cold dextran-coated charcoal solution (0.25% dextran, 5 mg/ml charcoal, in assay buffer) followed by centrifugation for 10 minutes at 4° C.” for “7.0).”
RIA's have been run according to the method of Example X utilizing ^125 I labeled bupropion competitors of the present invention in conjunction with antisera obtained following immunization with immunogens of the present invention. […] Following the ethanol precipitation of antibody-bound ^125 I-bupropion competitor at equilibrium, ^125 I in the protein pellets was quantified.

Compound | RIA sensitivity relative to the compound 10 (3H bupropion) assay system [2] | other results
CC(NC(C)(C)C)C(=O)c1cccc(Cl)c1 (racemic) [bupropion, (±)-2-tert-butylamino-3'-chloropropiophenone] |  | competition with radiolabeled bupropion or competitor for binding to antisera [1]: successfully compete
CC(NC(C)(C)C)C(=NOCC(=O)NCCc1ccc(O)c([125I])c1)c1cccc(Cl)c1 (stereo not drawn) [Compound 6, α-t-Butylamino-3-chloropropiophenone-carboxymethyloxime-^125 I-tyramine amide] |  | RIA sensitivity (anti-compound 1 sera): least sensitive RIA
CC(NC(C)(C)C)C(=O)c1ccc(OCC(=O)NCCc2ccc(O)c([125I])c2)c(Cl)c1 (stereo not drawn) [Compound 7, α-t-Butylamino-3-chloro-4-carbomethoxypropiophenone-^125 I-tyramine amide] | sensitivity approximately equal | 
CC(NC(C)(C)C)C(=O)c1ccc(CCCOC(=O)CCC(=O)NCCc2ccc(O)c([125I])c2)c(Cl)c1 (stereo not drawn) [Compound 8, α-t-butylamino-3-chloro-4-γ-hydroxypropylpropiophenonehemisuccinate-^125 I-tyramine amide] | sensitivity approximately equal | 
CC(NC(C)(C)C)C(=O)c1ccc(O)c([125I])c1 (stereo not drawn) [Compound 9, ^125 I-α-t-Butylamino-3-iodo-4-hydroxypropiophenone] | approximately ten times more sensitive | 
